Experimental data from patent US20070072946A1 (priority 2005, published 2007).
Values joined by “and” are separate entries in the source; they are usually repeats but may differ in a detail not shown here. Equal entries are not always repeated. Structures can show the parent of a compound that is named as a salt.

What was measured:
[1] = test system: subjects suffering from fibromyalgia syndrome; details: cited from earlier work; for subjects with significant clinical improvement: after one month; for long-term efficacy: at six months, 19% improvement with placebo; for difference from placebo: at three months
[2] = test system: patients who met the 1990 ACR criteria for fibromyalgia syndrome; assay: Multi-center double-blind, randomized, placebo-controlled study of milnacipran for fibromyalgia (Example 1, FMS031); format: in vivo, human; details: for m, number of responders: observed cases; for percentage of responders (greater than 30% reduction in pain from baseline and improvement on the PGIC): observed cases (OC), hydrochloride
Experimental: The primary outcome was a composite responder analysis assessing response rate at weeks 14 and 15, and the secondary analysis assessed response rate at weeks 26 and 27.
This was a multi-center, randomized, double-blinded, placebo-controlled three-arm study, which enrolled 888 patients who met the 1990 ACR criteria for fibromyalgia syndrome as well as the more detailed admission criteria outlined in the protocol.
Patients recorded baseline symptoms for the first two weeks after washing off anti-depressants, benzodiazepines, and certain other drugs that could potentially interfere with efficacy measurements.
All randomized medications (placebo and milnacipran) were administered in a split-dose (BID) fashion. The doses were administered in a dose escalation regimen as outlined below: • Step 1: 12.5 mg 1 day (12.5 mg pm) • Step 2: 25 mg 2 days (12.5 mg am, 12.5 mg pm) • Step 3: 50 mg 4 days (25 mg am, 25 mg pm) • Step 4: 100 mg 7 days (50 mg am, 50 mg pm) • Step 5: 200 mg 7 days (100 mg am, 100 mg pm).
Patients were required to complete electronic diary, as well as additional paper assessments as described in the schedule of study assessments.
In addition to the daily completion of a proprietary electronic patient diary, the following assessments were obtained:
a. Primary Variables: patient global impression of change (PGIC) and the Fibromyalgia Impact Questionnaire (FIQ);
d. FMS Status Assessments:, Patient pain 24 hour and 7 day recall VAS, the SF-36, Multiple Ability Self-report Questionnaire (MASQ, cognitive function), the Multidimensional Health Assessment Questionnaire (MDHAQ) and the Multi-dimensional Fatigue Inventory (MFI). Diary assessments include current pain (morning, random daily, and evening reports); daily recall pain (morning report); medications taken (evening report); overall pain past week (weekly report), overall fatigue in the last week (weekly report), and the extent that pain kept the patient from caring for themselves (weekly report).
The primary endpoint of this study was a composite responder analysis implementing analysis of three domains of interest, evaluated at […]. The domains measured were:
1) pain (measured by an electronic diary as a daily recall pain score, calculated to weekly average scores);
2) patient global (measured by the PGIC, 1-7 scale); and
3) physical function (measured by the FIQ-PF).
For the primary analysis, the pain domain score was determined by a calculation that compared the average of treatment weeks 14 and 15 to the two baseline weeks, and treatment weeks 26 and 27 vs. baseline for the secondary analysis. The last observation was carried forward if neither the week 14 nor week 15 (or week 26/27) patient self-reported pain score is available to compare to the baseline value.
A responder was defined as a subject who experienced a greater than 30% reduction in pain from baseline and improvement on the PGIC.
See Table 1 for a summary of the results in the Intent-to-Treat Population and Table 2 for a summary of the Last Observation Carried Forward (LOCF), Baseline Observation Carried Forward (BOCF) and study completer (OC) populations. LOCF is an analysis in which observations are carried forward to the last time point for patients who dropped out. The LOCF analysis treats the carried-forward data as observed data at the last time point. BOCF is an analysis that requires the patient remain active in the trial to be evaluated for response. If a patient withdraws from the trial for any reason they are classed as a non-responder irregardless of their pain and global scores at the time of withdrawal.

fibromyalgia patients = details: cited from earlier work
patients with FMS = details: cited from earlier work
[3] = both milnacipran treatment groups (BID and QD), up to 200 mg/day

In the case of `CN(C)CCC=C1c2ccccc2CCc2ccccc21` [amitriptyline], the “subjects with significant clinical improvement” value [1] is listed as 21%, the long-term efficacy [1] is listed as “no long-term efficacy could be demonstrated” and the difference from placebo [1] is listed as “no difference between either treatment group and placebo”.
In the case of `CN(C)CCC=C1c2ccccc2C=Cc2ccccc21` [cyclobenzaprine], the “subjects with significant clinical improvement” value [1] is listed as 12%, the long-term efficacy [1] is listed as “no long-term efficacy could be demonstrated” and the difference from placebo [1] is listed as “no difference between either treatment group and placebo”.
For `CCN(CC)C(=O)C1(c2ccccc2)CC1CN` (centres unmarked) [milnacipran, Z-2-aminomethyl-1-phenyl-N,N-diethylcyclopropanecarboxamide hydrochloride], the “efficacy of low dose compared with high dose” value ([2]; 100 mg/day vs 200 mg/day, long-term treatment) was “almost as effective as continued administration of high dose milnacipran”, the “Individual Component Responder Rate, PGIC (LOCF)” value ([2]; 100 mg, 3 month) was 54.0% and the “Individual Component Responder Rate, Pain (LOCF)” value ([2]; 100 mg, 3 month) was 35.7%. For the same compound, the “Pain Composite Responder Rate, Sensitivity Analysis I (BOCF)” value (“Pain Composite Responder Rate … (BOCF)” below) ([2]; 100 mg, 3 month) was 32.1%, the “Pain Composite Responder Rate, Sensitivity Analysis II” value ([2]; 100 mg, 3 month) was 32.% and the “Pain Composite Responder Rate, Sensitivity Analysis III” value ([2]; 100 mg, 3 month) was 32.1%. For the same compound, the “Pain Composite Responder Rate, Primary Analysis (LOCF)” value ([2]; 100 mg, 3 month, N = 224) was 33.5%, the “Individual Component Responder Rate, PGIC (LOCF)” value ([2]; 100 mg, 6 month) was 49.6% and the “Individual Component Responder Rate, Pain (LOCF)” value ([2]; 100 mg, 6 month) was 35.7%. The “Pain Composite Responder Rate … (BOCF)” value ([2]; 100 mg, 6 month) was 26.8%, the “Pain Composite Responder Rate, Sensitivity Analysis II” value ([2]; 100 mg, 6 month) was 27.2% and the “Pain Composite Responder Rate, Sensitivity Analysis III” value ([2]; 100 mg, 6 month) was 29.5%. The “Pain Composite Responder Rate, Primary Analysis (LOCF)” value ([2]; 100 mg, 6 month, N = 224) was 30.8%, the “m, number of responders” value ([2]; 100 mg, treatment weeks 14-15, n = 135) was 72 and the “m, number of responders” value ([2]; 100 mg, treatment weeks 26-27, n = 121) was 60. For the same compound, the “Individual Component Responder Rate, PGIC (LOCF)” value ([2]; 200 mg, 3 month) was 50.6%, the “Individual Component Responder Rate, Pain (LOCF)” value ([2]; 200 mg, 3 month) was 38.3% and the “Pain Composite Responder Rate … (BOCF)” value ([2]; 200 mg, 3 month) was 32.4%. For the same compound, the “Pain Composite Responder Rate, Sensitivity Analysis II” value ([2]; 200 mg, 3 month) was 32.7%, the “Pain Composite Responder Rate, Sensitivity Analysis III” value ([2]; 200 mg, 3 month) was 32.4% and the “Pain Composite Responder Rate, Primary Analysis (LOCF)” value ([2]; 200 mg, 3 month, N = 441) was 34.9%. The “Individual Component Responder Rate, PGIC (LOCF)” value ([2]; 200 mg, 6 month) was 49.9%, the “Individual Component Responder Rate, Pain (LOCF)” value ([2]; 200 mg, 6 month) was 35.4% and the “Pain Composite Responder Rate … (BOCF)” value ([2]; 200 mg, 6 month) was 27.0%. The “Pain Composite Responder Rate, Sensitivity Analysis II” value ([2]; 200 mg, 6 month) was 28.6%, the “Pain Composite Responder Rate, Sensitivity Analysis III” value ([2]; 200 mg, 6 month) was 29.9% and the “Pain Composite Responder Rate, Primary Analysis (LOCF)” value ([2]; 200 mg, 6 month, N = 441) was 32.2%. For the same compound, the “m, number of responders” value ([2]; 200 mg, treatment weeks 14-15, n = 260) was 143, the “m, number of responders” value ([2]; 200 mg, treatment weeks 26-27, n = 230) was 119 and the “long-term relief from fibromyalgia and its symptoms” value ([2]; continued daily administration for at least three months) was “provides long-term (at least three months) relief from fibromyalgia and its symptoms”. For the same compound, the “percentage of responders (greater than 30% reduction in pain from baseline and improvement on the PGIC)” value ([2]; milnacipran 100 mg/day BID, 3 months (treatment weeks 14-15)) was 53.33% and 53.3%, the “percentage of responders (greater than 30% reduction in pain from baseline and improvement on the PGIC)” value ([2]; milnacipran 100 mg/day BID, 3 months (treatment weeks 14-15), listed as Milnacipran) was 53.33% and the “percentage of responders (greater than 30% reduction in pain from baseline and improvement on the PGIC)” value ([2]; milnacipran 100 mg/day BID, 6 months (treatment weeks 26-27)) was 49.59% and 49.6%. For the same compound, the “percentage of responders (greater than 30% reduction in pain from baseline and improvement on the PGIC)” value ([2]; milnacipran 100 mg/day BID, 6 months (treatment weeks 26-27), listed as Milnacipran) was 49.59%, the “percentage of responders (greater than 30% reduction in pain from baseline and improvement on the PGIC)” value ([2]; milnacipran 200 mg/day BID, 3 months (treatment weeks 14-15)) was 55.0% and the “percentage of responders (greater than 30% reduction in pain from baseline and improvement on the PGIC)” value ([2]; milnacipran 200 mg/day BID, 3 months (treatment weeks 14-15), listed as Milnacipran) was 55.00%. For the same compound, the “percentage of responders (greater than 30% reduction in pain from baseline and improvement on the PGIC)” value ([2]; milnacipran 200 mg/day BID, 6 months (treatment weeks 26-27)) was 51.74% and 51.7%, the “percentage of responders (greater than 30% reduction in pain from baseline and improvement on the PGIC)” value ([2]; milnacipran 200 mg/day BID, 6 months (treatment weeks 26-27), listed as Milnacipran) was 51.74% and the “deaths or serious adverse events associated with treatment” value (fibromyalgia patients; Phase II study) was “no deaths or serious adverse events”. For the same compound, the “acute (short-term) efficacy on the symptom of pain in FMS” value (fibromyalgia patients; Phase II trial) was “effective acute (short-term) therapy for the symptom of pain in FMS”, the “completers reporting an improvement in their overall status on the PGIC” value (fibromyalgia patients; [3]) was “over 70%” and the “completers reporting worsening on the PGIC” value (fibromyalgia patients; [3]) was 10%. For the same compound, the “patients with elevation in hepatic enzymes reported as adverse event” value (fibromyalgia patients; milnacipran-treated patients) was 2%, the “efficacy of BID versus QD dosing in treating pain” value (fibromyalgia patients; twice-daily dosing compared with QD) was “more effective in treating pain than QD dosing” and the “efficacy of BID versus QD dosing on fatigue, mood, global wellness, and function” value (fibromyalgia patients; twice-daily vs once-daily dosing, up to 200 mg/day) was “approximately equally effective”.
For `COc1ccc(C(CN(C)C)C2(O)CCCCC2)cc1` (centres unmarked) [venlafaxine], the “patients with insomnia requiring adjunctive medical therapy” value (patients with FMS; of 11 completing patients) is listed as 3 patients and the “patients with a positive response (50% or greater improvement in two different measurements of overall pain)” value (patients with FMS; of the 11 patients that completed the study) is listed as 6 patients.
